The record followed here is patent US7718815B2, “Alpha-aminoamide derivatives useful in the treatment of lower urinary tract disorders” (Newron Pharmaceuticals S.p.A., priority 2004, dated 2010).

Experiment [1] deals with acetic acid (AA) irritated bladders of rats. The experiment is described as follows: Acute bladder irritation by acetic acid in rats (continuous infusion cystometrogram). The experiment is classed as in vivo, rat (female Sprague Dawley). The settings on record: anesthetized rats; 3, 10 and 30 mg/kg, intravenous cumulative doses; intravesical infusion of 0.15% acetic acid; FIG. 1. Here is the method:
(§1) The effect of a representative compound of formula I, (S)-(+)-2-[4-(2-fluorobenzyloxy)-benzylamino]-propanamide (NW-1029), on voiding function was tested in the following rat models of “Acute bladder irritation by acetic acid” and “Intermediate bladder irritation by cyclophosphamide (CYP)”.
(§2) Continuous infusion cystometrograms (0.04 ml/min) were used to measure intercontraction intervals (ICIs) which provide an estimate of bladder capacity. Cumulative dose response curves were obtained in each animal by administering intravenously increasing doses of the drug.
Experiments were performed using adult anesthetized female Sprague Dawley rats (170-200 g).
A catheter (PE-50) was inserted via a midline abdominal incision into the bladder through the bladder dome, and then intravesical pressure was measured to monitor bladder activity during continuous infusion of 0.15% of acetic acid. Intercontraction intervals (ICIs), maximal contraction pressure, and pressure thresholds inducing reflex bladder contraction were measured before and after intravesical infusion of acetic acid in NW-1029 treated rats.

Experiment [2] concerns cyclophosphamide (CYP) irritated bladders of rats. The experiment is described as follows: Intermediate bladder irritation by cyclophosphamide (CYP) in rats (continuous infusion cystometrogram). Type of experiment: in vivo, rat (female Sprague Dawley). The settings on record: 0.1 to 10 mg/kg/iv, CYP 150 mg/kg/ip one day before. Here is the method:
as §1, §2
Experiments were performed using both adult awake and anesthetized female Sprague Dawley rats (170-200 g).
Chemical cystitis was induced by CYP, which is metabolized to acrolein, an irritant eliminated in the urine. CYP (150 mg/kg/ip) was administered one day before the experiment.
NW-1029 was administered in a dose range from 0.1 to 10 mg/kg/iv.

Structures are written as SMILES.

`C[C@H](NCc1ccc(OCc2ccccc2F)cc1)C(N)=O` [NW-1029, (S)-(+)-2-[4-(2-fluorobenzyloxy)-benzylamino]-propanamide]: the “intercontraction interval (ICI), reversal of AA-induced reduction” value in experiment [1] is reported as “significant reversal of the AA-induced reduction in the ICI”. In addition, the “intercontraction interval (ICI)” value is “significantly increases the ICI” in experiment [2] (anesthetized rats, FIG. 3) and “significantly increases the ICI” in experiment [2] (awake rats, FIG. 2).
